# Assay results reported in US10448639B2, “Fungicidal pyrazoles” (FMC CORPORATION, priority 2009, dated 2019).
# Read-outs that look alike come from different tables or passages of the source.
# Assays:
# [1] = tested on: Erysiphe graminis f sp. tritici; assay: Test J: wheat powdery mildew, preventive spray on wheat seedlings, visual disease rating; settings: for Test J rating (% disease control): wheat powdery mildew, 100 = 100% disease control; for pest or weed control at 200 µg/mL: Blumeria graminis, in Triticum aestivum, 192 h
# Alternaria solani = assay: Test C: tomato early blight, preventive spray on tomato seedlings, visual disease rating; settings: for Test C rating (% disease control): tomato early blight, 100 = 100% disease control; for pest or weed control at 200 µg/mL: Alternaria solani, in Solanum lycopersicum, 168 h
# [2] = tested on: Puccinia recondita f. sp. tritici; assay: Test H: wheat leaf rust, curative spray on inoculated wheat seedlings, visual disease rating; settings: for Test H rating (% disease control): wheat leaf rust, 100 = 100% disease control; for pest or weed control at 200 µg/mL: 144 h
# Description: General protocol for preparing test suspensions for Tests A-J: the test compounds were first dissolved in acetone in an amount equal to 3% of the final volume and then suspended at the desired concentration (in ppm) in acetone and purified water (50/50 mix by volume) containing 250 ppm of the surfactant Trem® 014 (polyhydric alcohol esters). The resulting test suspensions were then used in Tests A-J. Spraying a 200 ppm test suspension to the point of run-off on the test plants was the equivalent of a rate of 500 g/ha. Unless otherwise indicated, the rating values indicate a 200 ppm test suspension was used. (An asterisk “*” next to the rating value indicates a 40 ppm test suspension was used.)
# Wheat seedlings were inoculated with a spore suspension of Puccinia recondita f. sp. tritici (the causal agent of wheat leaf rust) and incubated in a saturated atmosphere at 20° C. for 24 h, and then moved to a growth chamber at 20° C. for 2 days. At the end of this time the test suspension was sprayed to the point of run-off, and then the seedlings were moved to a growth chamber at 20° C. for 6 days after which time visual disease ratings were made.
# Septoria nodorum = assay: Test F: Septoria glume blotch, preventive spray on wheat seedlings, visual disease rating; settings: for Test F rating (% disease control): 100 = 100% disease control; for pest or weed control at 200 µg/mL: Parastagonospora nodorum, in Triticum aestivum, 192 h
# Septoria tritici = assay: Test G: wheat leaf blotch, preventive spray on wheat seedlings, visual disease rating; settings: for Test G rating (% disease control): wheat leaf blotch, 100 = 100% disease control; for pest or weed control at 200 µg/mL: Zymoseptoria tritici, in Triticum aestivum, 504 h
# [3] = tested on: Puccinia recondita f. sp. tritici; assay: Test I: wheat leaf rust, preventive spray on wheat seedlings, visual disease rating; settings: for Test I rating (% disease control): wheat leaf rust, 100 = 100% disease control; for pest or weed control at 200 µg/mL: 192 h
# Botrytis cinerea = assay: Test B: tomato Botrytis, preventive spray on tomato seedlings, visual disease rating; settings: for Test B rating (% disease control): tomato Botrytis, 100 = 100% disease control; for pest or weed control at 200 µg/mL: Botrytis cinerea, in Solanum lycopersicum, 120 h
# [4] = 0 = no control relative to controls
# [5] = curative, 0 = no control relative to controls
# [6] = Septoria glume blotch, 0 = no control relative to controls
# [7] = preventive, 0 = no control relative to controls
# [8] = read-out: Test J rating (% disease control)
# [9] = read-out: Test C rating (% disease control)
# [10] = read-out: Test H rating (% disease control)
# [11] = read-out: Test F rating (% disease control)
# [12] = read-out: Test G rating (% disease control)
# [13] = read-out: Test I rating (% disease control)
# [14] = read-out: Test B rating (% disease control)
# [15] = preventive spray, 0 = no control
# [16] = Septoria glume blotch on wheat, preventive spray, 0 = no control
Structure (SMILES),"Test J rating (% disease control) [1, 4] [%]",Test C rating (% disease control) (Alternaria solani; [4]) [%],"Test H rating (% disease control) [2, 5] [%]",Test F rating (% disease control) (Septoria nodorum; [6]) [%],Test G rating (% disease control) (Septoria tritici; [4]) [%],"Test I rating (% disease control) [3, 7] [%]",Test B rating (% disease control) (Botrytis cinerea; [4]) [%],"Test J rating (% disease control) [1, 15] [%]",Test C rating (% disease control) (Alternaria solani; [15]) [%],"Test H rating (% disease control) ([2]; curative spray, 0 = no control) [%]",Test F rating (% disease control) (Septoria nodorum; [16]) [%],Test G rating (% disease control) (Septoria tritici; [15]) [%],"Test I rating (% disease control) [3, 15] [%]",Test B rating (% disease control) (Botrytis cinerea; [15]) [%],other results
Cc1nn(C)c(Oc2c(F)cc(C#N)cc2F)c1-c1ccc(F)cc1F [compound 170],99,99,0,99,98,100,100,–,–,–,–,–,–,–,–
"Cc1nn(C)c(Oc2c(F)cc([N+](=O)[O-])cc2F)c1-c1c(F)cc(F)cc1F [Compound 54, 5-(2,6-Difluoro-4-nitrophenoxy)-1,3-dimethyl-4-(2,4,6-trifluorophenyl)-1H-pyrazole]",–,–,–,–,–,–,–,–,–,–,–,–,–,–,"pest or weed control at 200 µg/mL [1, 8]: 95%; pest or weed control at 200 µg/mL (Alternaria solani; [9]): 0%; pest or weed control at 200 µg/mL [2, 10]: 0%; pest or weed control at 200 µg/mL (Septoria nodorum; [11]): 0%; pest or weed control at 200 µg/mL (Septoria tritici; [12]): 41%; pest or weed control at 200 µg/mL [3, 13]: 95%; pest or weed control at 200 µg/mL (Botrytis cinerea; [14]): 96%"
COc1cc(F)c(-c2c(C)nn(C)c2Oc2c(F)cc(Br)cc2F)c(F)c1 [compound 90],–,–,–,–,–,–,–,100,95,0,84,100,98,99,–
COc1cc(F)ccc1-c1c(C)nn(C)c1Oc1c(F)cc(C#N)cc1F [compound 89],–,–,–,–,–,–,–,97,0,0,0,99,0,99,–
Cc1nn(C)c(Nc2ccc(F)cc2)c1-c1c(F)cccc1C(F)(F)F [compound 254],64,0,0,0,84,0,100,–,–,–,–,–,–,–,–
Cc1nn(C)c(Nc2ccc(F)cc2F)c1-c1ccccc1F [compound 181],98,44,0,0,100,60,94,–,–,–,–,–,–,–,–
COc1cc(OC)cc(-c2c(C)nn(C)c2Oc2ccc(Cl)cc2)c1 [compound 16],–,–,–,–,–,–,–,0,0,48,0,47,28,60,–
"COc1cc(F)c(-c2c(C)nn(C)c2Nc2ccc(F)cc2F)c(F)c1 [Compound 23, 4-(2,6-difluoro-4-methoxyphenyl)-N-(2,4-difluorophenyl)-1,3-dimethyl-1H-pyrazol-5-amine]",–,–,–,–,–,–,–,–,–,–,–,–,–,–,"pest or weed control at 200 µg/mL [1, 8]: 100%; pest or weed control at 200 µg/mL (Alternaria solani; [9]): 100%; pest or weed control at 200 µg/mL [2, 10]: 92%; pest or weed control at 200 µg/mL (Septoria nodorum; [11]): 99%; pest or weed control at 200 µg/mL (Septoria tritici; [12]): 93%; pest or weed control at 200 µg/mL [3, 13]: 100%; pest or weed control at 200 µg/mL (Botrytis cinerea; [14]): 98%"
Cc1nn(C)c(Nc2cc(Cl)ccc2Cl)c1-c1c(F)cc(C#N)cc1F [compound 146],–,–,–,–,–,–,–,56,0,0,0,99,97,99,–
Cc1nn(C)c(Nc2c(F)cccc2F)c1-c1c(F)cccc1F [compound 247],100,99,0,60,100,99,100,–,–,–,–,–,–,–,–
Cc1nn(C)c(Nc2cnc(Cl)nc2)c1-c1ccc(F)cc1Cl [compound 268],0,93,0,0,99,74,95,–,–,–,–,–,–,–,–
Cc1nn(C)c(Nc2cc(Cl)ccc2F)c1-c1c(F)cc(C#N)cc1F [compound 142],–,–,–,–,–,–,–,90,13,0,20,99,95,33,–
"Cc1nn(C)c(Nc2c(F)cc(Br)cc2F)c1-c1ccc(F)cc1Cl [Compound 365, N-(4-bromo-2,6-difluorophenyl)-4-(2-chloro-4-fluorophenyl)-1,3-dimethyl-1H-pyrazol-5-amine]",–,–,–,–,–,–,–,–,–,–,–,–,–,–,pest or weed control at 200 µg/mL ([1]; read-out: Test J disease control rating): 100%; pest or weed control at 200 µg/mL (Alternaria solani; read-out: Test C disease control rating): 99%; pest or weed control at 200 µg/mL ([2]; read-out: Test H disease control rating): 74%; pest or weed control at 200 µg/mL (Septoria nodorum; read-out: Test F disease control rating): 64%; pest or weed control at 200 µg/mL (Septoria tritici; read-out: Test G disease control rating): 100%; pest or weed control at 200 µg/mL ([3]; read-out: Test I disease control rating): 100%; pest or weed control at 200 µg/mL (Botrytis cinerea; read-out: Test B disease control rating): 100%
COc1cc(F)c(-c2c(C)nn(C)c2Nc2ccc(C)cn2)c(F)c1 [compound 66],–,–,–,–,–,–,–,99,99,6,0,100,100,100,–
COc1ccc(Nc2c(-c3ccc(Cl)cc3)c(C)nn2C)cc1 [compound 56],–,–,–,–,–,–,–,64,0,0,0,99,28,43,–
Cc1nn(C)c(Nc2ncc(F)cc2F)c1-c1ccc(F)cc1Cl [compound 154],100,99,41,97,100,100,99,–,–,–,–,–,–,–,–
Cc1nn(C)c(Nc2c(F)cc(F)cc2F)c1-c1ccccc1Br [compound 248],100,26,0,73,100,99,99,–,–,–,–,–,–,–,–
